{
  "source": "patent US20100178279A1",
  "about": "“Beta-Glucan Enhances Hematopoietic Progenitor Cells Engraftment and Promotes Recovery from Chemotoxicity” (Cornell University, priority 2009, published 2010)",
  "key": {"[1]": {"tested_on": "B6D2F1 mice", "assay": "Peripheral blood cell recovery (complete blood cell count) after Ptx treatment", "description": "Mice: B6D2F1 mice female, 6-8 weeks old were purchased from Jackson Laboratory, and were maintained in a pathogen-free facility at Memorial Sloan-Kettering Cancer Center (MSKCC, New York, N.Y.) with access to fresh water and food ad libitum. Certified Rodent Diet #5053 (Lab Diet) was used. All animal experiments were approved by the MSKCC Animal Care Committee. Treatments: Ptx was intraperitoneally injected (i.p) at 30 mg/kg/day over […] with cumulative dose of 90-120 mg/kg to mice. Neupogen (G-CSF) was given i.v. at 80 microg/kg at 24 hrs after the last dose of Ptx. […] Mice were weighed each day. Blood was taken from the tail vein for complete blood cell (CBC) counts. Sacrifice was performed by the CO2 method.\nComplete Blood Cell Count: Approximately 20 microL of blood was taken from the tail vein after warming, for assessment of CBC by automated differential analysis using the Hemavet instrument after instrument standardization.\nStatistical Analysis: Data are presented as mean percentage ±SD or mean counts ±SD. To identify the appropriate dose of Ptx, ANCOVA was used to examine significance of variation in average cell counts or percentage of change from baseline across all days for the cell type of interest in a treatment group and possible within-mouse correlation was adjusted by including mouse ID as a covariate. If overall significance by ANCOVA was shown, Tukey's method was used to determine between-day significance. To assess significance of variation across dose groups (including untreated) over the treatment interval, two-way ANOVA was used and then Bonferroni method was used to adjust for between-group multiple comparisons. In the studies of blood cell recovery, the decrease in cell count was calculated as compared to the corresponding baseline during the treatment for each mouse. The averages of the group decreases across different treatment groups were compared using two-way ANOVA to determine significance. Two sample t-tests were used to compare the difference in average percentage change at a given time point between any two treatment groups. Tukey's or Bonferroni method was used to adjust p-values for multiple comparisons where appropriate. The analyses were carried out using GraphPad Prism software version 5.01. Additional information is provided in the text.\n30 mg/kg/day Ptx was given over 3 consecutive days (90 mg/kg cumulative dose) to each group. […] The Ptx+G-CSF group received one dose of intravenous G-CSF (80 ug/kg), 24 hrs after the last Ptx dose. Changes in absolute numbers of leukocytes (white blood cell count) from baseline were evaluated from post-day 1 to post-day 8 after chemotherapy. For each mouse, percent change in counts from baseline was calculated. Change from baseline across days within a treatment group was assessed by ANCOVA and within-mouse correlation was included as appropriate. Paired t-tests were used to compare any two time-points. Differences among treatment groups across the experimental period were assessed by two-way"}, "[2]": {"tested_on": "Gr-1+ granulocytes/monocytes", "assay": "Flow cytometric oxidative burst (ROS) assay on peripheral blood ex vivo after Ptx", "type": "in vivo, mouse", "description": "Flow Cytometric Oxidative Burst Assay: Peripheral blood was obtained by retro orbital bleeding; about 400 microL blood were collected into heparinized tubes. The respiratory burst assay was performed as described with modifications. Briefly, 100 microL blood aliquots were added to each tube, wash buffer or stimuli (opsonized E. coli, fMLP (N-formylmethionyl-leucyl-phenylalanine) were added at 20 microL. Tubes were incubated in a water bath at 37° C. for 10 mins, then 20 microL of dihydrorhodamine (DHR-123) was added and tubes were vortexed, and then incubated for another 10 mins. Red blood cells were lysed and removed after washing once. R-PE conjugated rat anti-mouse Ly-6G and Ly-6C (Gr-1, BD Biosciences) antibody was added in the presence of Mouse BD Fc Block (purified anti-mouse CD16/CD32 monoclonal antibody, 2.4G2, BD Biosciences) at 1 μg/million cells, and incubated at room temperature in the dark for 15 mins. Cells were washed; supernatants removed and 200 μL of DNA staining solution was added. The samples were analyzed by flow cytometer (FACSCalibur) using CellQuest. The initial gate was set with Gr-1 to identify granulocytes/monocytes; the percentage of responding cells was then analyzed with FlowJo software.\nAfter brief exposure of whole blood to opsonized E. coli and the chemotactic peptide N-formyl-Met-Leu-Phe (fMLP) ex vivo, fluorescence of ROS positive cells was detected by the oxidation of the dihydrorhodamine substrate. Blood samples were collected from each group 4 days after the last dose of Ptx and again on post-day 11. […] Post-day 4 was 3 days after G-CSF injection for the Ptx+G-CSF group. The ROS responses of normal, untreated mice were also studied."}, "[3]": {"tested_on": "B6D2F1 mice", "assay": "Paclitaxel-induced leukopenic mouse model, serial complete blood counts", "type": "in vivo", "description": "Certified Rodent Diet #5053 (Lab Diet) was used. […] Mice were weighed each day. […] Sacrifice was performed by the CO2 method. […]\nTo determine the dose of Ptx required for induction of acute hematotoxicity that also permitted spontaneous recovery, fractionated dosing at 10 to 30 mg/kg was given 3 times every other day to groups of mice. After doses greater than 15 mg/kg were found effective, we compared cumulative doses of 60 and 90 mg/kg to untreated mice (n=4 each group). Serial CBCs were obtained from each mouse. Variation was evaluated by one-way ANCOVA and within mouse correlation was included as the covariate. Pair-wise differences were evaluated by Tukey's posttest. Treatment group variation was assessed by two-way ANOVA over the interval followed by between-group comparisons using Bonferroni posttests."}, "[4]": {"details": "Ptx 90 mg/kg, MBG 6 mg/kg/day oral or G-CSF 80 ug/kg i.v. once"}},
  "data": [
    {"molecule": "CC(=O)O[C@H]1C(=O)[C@@]2(C)[C@H]([C@H](OC(=O)c3ccccc3)[C@]3(O)C[C@H](OC(=O)[C@H](O)[C@@H](NC(=O)c4ccccc4)c4ccccc4)C(C)=C1C3(C)C)[C@]1(OC(C)=O)CO[C@@H]1C[C@@H]2O", "note": "[Ptx, Paclitaxel]", "values": [
      {"measurement": "Leukocyte levels by post-day 5 compared to earlier post-days", "setting": "[1]; [4]", "value": "Counts improved by post-day 5 and 8 compared to post-day 1"},
      {"measurement": "Lymphocyte recovery time course relative to baseline", "setting": "[1]; [4]", "value": "baseline levels were not achieved, even by post-day 8"},
      {"measurement": "Neutrophil recovery time course", "setting": "[1]; [4]", "value": "Baseline levels were achieved by post-day 8"},
      {"measurement": "Decrease in neutrophil level on post-day 5, between groups", "setting": "[1]; early recovery period", "value": "greater"},
      {"measurement": "Duration of suppression of peripheral blood white blood cell counts below baseline levels", "setting": "[1]; mouse, in vivo", "value": "more than 8 days"},
      {"measurement": "Monocyte counts below baseline at lowest point", "setting": "[1]; mouse, in vivo", "value": "77.6±13", "unit": "%"},
      {"measurement": "Unstimulated ROS production on post-day 11 compared to post-day 4", "setting": "[2]; mouse, in vivo", "value": "unchanged"},
      {"measurement": "ROS response to E. coli on post-day 11 compared to post-day 4", "setting": "[2]; p<0.0001", "value": "increased"},
      {"measurement": "ROS response to fMLP on post-day 11 compared to post-day 4", "setting": "[2]; p<0.0001", "value": "decreased"},
      {"measurement": "ROS response to E. coli compared to untreated mice", "setting": "[2]; post-day 4", "value": "lower compared to untreated mice"},
      {"measurement": "Leukocyte numbers compared to untreated mice", "setting": "[3]; cumulative Ptx dose 60 mg/kg", "value": "fewer leukocytes"},
      {"measurement": "Neutrophil counts across all days", "setting": "[3]; cumulative Ptx dose 60 mg/kg, ANCOVA, no pair-wise comparisons significant", "value": "overall drop in neutrophil counts across all days was significant"},
      {"measurement": "Leukocyte numbers compared to untreated mice", "setting": "[3]; cumulative Ptx dose 90 mg/kg", "value": "lower leukocyte numbers on days 3, 4, and 5"},
      {"measurement": "Lymphocyte numbers compared to the untreated group", "setting": "[3]; cumulative Ptx dose 90 mg/kg", "value": "lower over days 3, 4, and 5"},
      {"measurement": "Lymphocytes compared to baseline", "setting": "[3]; cumulative Ptx dose 90 mg/kg", "value": "lower on day 8 compared to baseline"},
      {"measurement": "Neutrophil counts compared to baseline", "setting": "[3]; cumulative Ptx dose 90 mg/kg", "value": "counts were significantly lower on days 4 and 5 compared to baseline"},
      {"measurement": "Neutrophils compared to the untreated group", "setting": "[3]; cumulative Ptx dose 90 mg/kg (higher dose)", "value": "more reduced"},
      {"measurement": "Changes in leukocyte numbers within group", "setting": "[3]; cumulative Ptx dose 90 mg/kg, one-way ANCOVA", "value": "produced significant changes in leukocyte numbers"},
      {"measurement": "Fractionated Ptx dose found effective for induction of acute hematotoxicity", "setting": "[3]; given 3 times every other day", "value": "greater than 15 mg/kg"}
    ]},
    {"molecule": "G-CSF: Neupogen (G-CSF) from Amgen; recombinant human G-CSF (protein, UniProt P09919 31-207, looked up, filgrastim, N-terminal methionine) Granulocyte …: TPLGPASSLPQSFLLKCLEQVRKIQGDGAALQEKLVSECATYKLCHPEELVLLGHSLGIPWAPLSSCPSQALQLAGCLSQLHSGLFLYQGLLQALEGISPELGPTLDTLQLDVADFATTIWQQMEELGMAPALQPTQGAMPAFASAFQRRAGGVLVASHLQSFLEVSYRVLRHLAQP", "values": [
      {"measurement": "Decline in leukocytes on post-day 2", "setting": "[1]; Ptx 90 mg/kg, 24 hrs after G-CSF injection", "value": "not observed"},
      {"measurement": "Effect on Ptx-induced increase of platelet numbers", "setting": "[1]; mouse, in vivo", "value": "also not affected"}
    ]}
  ]
}
